How the values were obtained:
[1] = target: T1, UGT78G1 (Medicago truncatula, UniProt A6XNC6); assay: UGT78G1 enzyme reactions with acceptor substrates, products analyzed by HPLC; type: biochemical; design: hexahistidine tag with thrombin cleavage site (pET28a(+)) (N); made in house; host or cells: E. coli BL21 (DE3)
T1 sequence (A6XNC6 1-454): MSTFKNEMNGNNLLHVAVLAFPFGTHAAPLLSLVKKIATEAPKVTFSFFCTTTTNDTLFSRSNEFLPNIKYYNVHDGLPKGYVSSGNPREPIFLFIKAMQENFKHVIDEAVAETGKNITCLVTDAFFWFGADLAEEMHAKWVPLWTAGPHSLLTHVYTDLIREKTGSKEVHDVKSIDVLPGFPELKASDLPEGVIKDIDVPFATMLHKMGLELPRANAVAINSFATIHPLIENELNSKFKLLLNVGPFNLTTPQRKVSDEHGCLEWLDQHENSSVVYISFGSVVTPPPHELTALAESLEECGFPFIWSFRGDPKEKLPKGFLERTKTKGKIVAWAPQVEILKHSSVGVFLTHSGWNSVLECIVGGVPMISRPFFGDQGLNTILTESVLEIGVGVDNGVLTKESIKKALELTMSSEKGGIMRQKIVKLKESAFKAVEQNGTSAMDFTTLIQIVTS
Description: Reactions were stopped with TCA and products analyzed by HPLC as described above.

[2] = target: T1, UGT78G1; assay: Kinetic analysis of UGT78G1 (GT83F) with (iso)flavonoid acceptor substrates, UDP-[14C]-glucose donor; details: for Kcat/Km ratio: unit not given; for Kcat / Km / Vmax: recombinant UGT78G1, donor UDP-glucose, 30° C., pH 7.0; for Vmax compared with that for most of the other substrates / substrate quality for UGT78G1 in vitro: in words
Procedure: The PCR product was purified, ligated to pGEMTeasy vector (Promega, Madison, Wis., USA), sequenced, excised and re-cloned between the BamHI and NotI sites of pET28a(+) (Novagen, Madison, Wis., USA) with a hexahistidine tag and a thrombin cleavage site. E. coli BL21 (DE3) cells harboring the expression construct were grown to an OD600 of 0.4-0.5, and expression was initiated by addition of isopropyl 1-thio-β-D-galactopyranoside (IPTG) at a final concentration of 0.2 mM, with further incubation with shaking overnight at 16° C. The enzyme was purified from E. coli lysates by nickel affinity chromatography.
Reactions were stopped with TCA after 15 min incubation at 30° C. Samples were extracted with 250 μl of ethyl acetate, and 200 μl were taken for liquid scintillation counting (Beckman LS6500). Data were analyzed using Hyper32 software for the analysis of enzyme-kinetic data (J. S. Easterby, University of Liverpool, Liverpool, UK; available at www.liv.ac.uk/˜jse/software.html).

[3] = target: T1, UGT78G1; design: hexahistidine tag with thrombin cleavage site (pET28a(+)) (N); made in house; host or cells: E. coli BL21 (DE3); details: in vitro (Modolo et al, 2007); cited from earlier work
[4] = substrate: O=c1c(O)c(-c2ccc(O)cc2)oc2cc(O)cc(O)c12; assay: purified protein, by the assay type; details: other: recombinant UGT78G1, donor UDP-glucose, 30° C., pH 7.0
[5] = substrate: O=c1c(-c2ccc(O)cc2)coc2cc(O)cc(O)c12; assay: purified protein, by the assay type; details: other: recombinant UGT78G1, donor UDP-glucose, 30° C., pH 7.0
[6] = substrate: O=c1c(O)c(-c2ccc(O)c(O)c2)oc2cc(O)cc(O)c12; assay: purified protein, by the assay type; details: other: recombinant UGT78G1, donor UDP-glucose, 30° C., pH 7.0
[7] = substrate: O=c1cc(-c2ccc(O)cc2)oc2cc(O)cc(O)c12; assay: purified protein, by the assay type; details: other: recombinant UGT78G1, donor UDP-glucose, 30° C., pH 7.0

Molecule: O=c1cc(-c2ccc(O)cc2)oc2cc(O)cc(O)c12 [apigenin]
- position of glycosylation by UGT78G1 [1]: 7-O-position
- Kcat/Km ratio [2]: 1,534

Molecule: COc1ccc(-c2coc3cc(O)cc(O)c3c2=O)cc1 [biochanin A (4′-methoxy genistein)]
- position of glycosylation by UGT78G1 [1]: 7-O-position
- Kcat [2]: 0.012 s⁻¹
- Km [2]: 11.7 µM
- Vmax [2]: 0.3666 µmol/min

Molecule: O=c1c(-c2ccc(O)cc2)coc2cc(O)ccc12 [daidzein]
- Km [2]: 1.6 µM

Molecule: COc1ccc(-c2coc3cc(O)ccc3c2=O)cc1 [formononetin]
- position of glycosylation by UGT78G1 [1]: 7-O-position
- Kcat [2]: 0.0029 s⁻¹
- Km [2]: 1.5 µM
- Vmax [2]: 0.0879 µmol/min
- preference (Kcat/Km) for formononetin over daidzein ([2]; relative to daidzein): about 2 fold

Molecule: O=c1c(-c2ccc(O)cc2)coc2cc(O)cc(O)c12 [genistein]
- position of glycosylation by UGT78G1 [1]: 7-O-position
- Kcat [2]: 0.004 s⁻¹
- Vmax [2]: 1.2050 µmol/min
- Km of genistein relative to Km of daidzein ([2]; relative to daidzein): 23 fold
- Kcat/Km ratio [2]: 1,098

Molecule: O=c1c(O)c(-c2ccc(O)cc2)oc2cc(O)cc(O)c12 [kaempferol]
- position of glycosylation by UGT78G1 [1]: 3-position
- Vmax compared with that for most of the other substrates [2]: much higher
- Kcat [2]: 0.053 s⁻¹
- Vmax [2]: 1.5830 µmol/min

Molecule: Oc1ccc(-c2[o+]c3cc(O)cc(O)c3cc2O)cc1 [pelargonidin]
- activity of UGT78G1 with substrate [3]: shows activity
- substrate quality for UGT78G1 in vitro [2]: relatively poor substrates
- Kcat [2]: 0.0057 s⁻¹
- Km [2]: 71.8 µM
- Vmax [2]: 0.1698 µmol/min

Molecule: O=c1c(O)c(-c2ccc(O)c(O)c2)oc2cc(O)cc(O)c12 [quercetin]
- position of glycosylation by UGT78G1 [1]: 3-position
- Vmax compared with that for most of the other substrates [2]: much higher
- Kcat [2]: 0.029 s⁻¹
- Vmax [2]: 0.8557 µmol/min

Molecule: cyanidin
- activity of UGT78G1 with substrate [3]: shows activity
- substrate quality for UGT78G1 in vitro [2]: relatively poor substrates
- Kcat [2]: 0.0068 s⁻¹
- Km [2]: 52 µM
- Vmax [2]: 0.2025 µmol/min

B1: UGT78G1 (Medicago truncatula) (protein)
chain: T1 sequence (A6XNC6 1-454)
- Km [4]: 89.8 µM
- Km [5]: 36.7 µM
- Km [6]: 28.7 µM
- Km [7]: 1.5 µM
- Vmax [7]: 0.0688 µmol/min
- kcat [7]: 0.0023 s⁻¹
- kcat/Km [7]: 1530 M⁻¹ s⁻¹
